According to patent publication US20090286829A1, “QUINOLYNYLMETHYLIMIDIZOLES AS THERAPEUTIC AGENTS” (ALLERGAN, INC., priority 2008, published 2009):

Legend:
Assay type in all cases: cell-based
Alpha 2B = biological target: T1, Alpha 2B (Homo sapiens, UniProt P18089); assay: RSAT assay, alpha 2B receptor; conditions: for Alpha 2B (IA) intrinsic activity: RSAT, ratio of maximal effect to that of standard agonist brimonidine
T1 construct: expressed in transfected cells; host or cells: NIH-3T3
T1 sequence (P18089 1-450): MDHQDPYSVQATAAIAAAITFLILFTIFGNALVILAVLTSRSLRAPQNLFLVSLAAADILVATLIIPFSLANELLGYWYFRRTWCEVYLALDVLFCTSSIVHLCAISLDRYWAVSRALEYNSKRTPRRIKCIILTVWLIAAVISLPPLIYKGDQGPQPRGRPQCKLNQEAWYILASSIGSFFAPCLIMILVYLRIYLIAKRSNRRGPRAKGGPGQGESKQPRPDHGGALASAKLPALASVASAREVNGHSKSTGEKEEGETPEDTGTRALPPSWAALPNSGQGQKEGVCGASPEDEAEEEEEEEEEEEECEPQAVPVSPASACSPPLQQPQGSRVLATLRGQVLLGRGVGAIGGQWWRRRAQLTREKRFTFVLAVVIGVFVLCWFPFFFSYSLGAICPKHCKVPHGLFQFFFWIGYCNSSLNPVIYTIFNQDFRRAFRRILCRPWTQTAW
Experimental: (§1) The RSAT assay measures a receptor-mediated loss of contact inhibition that results in selective proliferation of receptor-containing cells in a mixed population of confluent cells. The increase in cell number is assessed with an appropriate transfected marker gene such as -galactosidase, the activity of which can be easily measured in a 96-well format. Receptors that activate the G protein, Gq, elicit this response. Alpha2 receptors, which normally couple to Gi, activate the RSAT response when coexpressed with a hybrid Gq protein that has a Gi receptor recognition domain, called Gq/i5.
NIH-3T3 cells are plated at a density of 2×10^6 cells in 15 cm dishes and maintained in Dulbecco's modified Eagle's medium supplemented with 10% calf serum. One day later, cells are cotransfected by calcium phosphate precipitation with mammalian expression plasmids encoding p-SV-1-galactosidase (5-10 μg), receptor (1-2 μg) and G protein (1-2 μg). 40 μg salmon sperm DNA may also be included in the transfection mixture. Fresh media is added on the following day and 1-2 days later, cells are harvested and frozen in 50 assay aliquots. Cells are thawed and 100 μl added to 100 μl aliquots of various concentrations of drugs in triplicate in 96-well dishes. Incubations continue 72-96 hr at 37° C. After washing with phosphate-buffered saline, β-galactosidase enzyme activity is determined by adding 200 μl of the chromogenic substrate (consisting of 3.5 mM o-nitrophenyl-β-D-galactopyranoside and 0.5% nonidet P-40 in phosphate buffered saline), incubating overnight at 30° C. and measuring optical density at 420 nm. The absorbance is a measure of enzyme activity, which depends on cell number and reflects a receptor-mediated cell proliferation. The efficacy or intrinsic activity is calculated as a ratio of the maximal effect of the drug to the maximal effect of a standard full agonist for each receptor subtype. Brimonidine, also called UK14304, the chemical structure of which is shown below, is used as the standard agonist for the alpha2A, alpha2B and alpha2C receptors. The EC50 is the concentration at which the drug effect is half of its maximal effect.
EC50 values are nanomolar. NA stands for “not active” at concentrations less than 10 micromolar. IA stands for “intrinsic activity.”

Alpha 2C = biological target: T2, Alpha 2C (Homo sapiens, UniProt P18825); assay: RSAT assay, alpha 2C receptor
T2 construct: expressed in transfected cells; host or cells: NIH-3T3
T2 sequence (P18825 1-462): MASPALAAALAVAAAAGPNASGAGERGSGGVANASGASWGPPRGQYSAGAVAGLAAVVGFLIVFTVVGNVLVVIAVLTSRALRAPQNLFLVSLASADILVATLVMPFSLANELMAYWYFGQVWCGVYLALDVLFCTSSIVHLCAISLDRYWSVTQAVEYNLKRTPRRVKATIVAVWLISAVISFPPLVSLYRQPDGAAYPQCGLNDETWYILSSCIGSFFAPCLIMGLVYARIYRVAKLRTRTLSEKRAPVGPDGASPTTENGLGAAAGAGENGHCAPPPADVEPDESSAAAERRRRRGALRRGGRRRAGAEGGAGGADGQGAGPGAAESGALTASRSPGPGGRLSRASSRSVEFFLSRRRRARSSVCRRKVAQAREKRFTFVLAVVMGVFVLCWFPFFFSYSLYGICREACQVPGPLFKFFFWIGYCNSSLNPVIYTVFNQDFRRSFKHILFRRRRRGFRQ
Experimental: as §1
(§2) NIH-3T3 cells are plated at a density of 2×10^6 cells in 15 cm dishes and maintained in Dulbecco's modified Eagle's medium supplemented with 10% calf serum. […] After washing with phosphate-buffered saline, β-galactosidase enzyme activity is determined by adding 200 μl of the chromogenic substrate (consisting of 3.5 mM o-nitrophenyl-β-D-galactopyranoside and 0.5% nonidet P-40 in phosphate buffered saline), incubating overnight at 30° C. and measuring optical density at 420 nm. The absorbance is a measure of enzyme activity, which depends on cell number and reflects a receptor-mediated cell proliferation. The efficacy or intrinsic activity is calculated as a ratio of the maximal effect of the drug to the maximal effect of a standard full agonist for each receptor subtype. […]

Alpha 1A = biological target: T3, Alpha 1A (Homo sapiens, UniProt P35348); assay: RSAT assay, alpha 1A receptor
T3 construct: expressed in transfected cells; host or cells: NIH-3T3
T3 sequence (P35348 1-466): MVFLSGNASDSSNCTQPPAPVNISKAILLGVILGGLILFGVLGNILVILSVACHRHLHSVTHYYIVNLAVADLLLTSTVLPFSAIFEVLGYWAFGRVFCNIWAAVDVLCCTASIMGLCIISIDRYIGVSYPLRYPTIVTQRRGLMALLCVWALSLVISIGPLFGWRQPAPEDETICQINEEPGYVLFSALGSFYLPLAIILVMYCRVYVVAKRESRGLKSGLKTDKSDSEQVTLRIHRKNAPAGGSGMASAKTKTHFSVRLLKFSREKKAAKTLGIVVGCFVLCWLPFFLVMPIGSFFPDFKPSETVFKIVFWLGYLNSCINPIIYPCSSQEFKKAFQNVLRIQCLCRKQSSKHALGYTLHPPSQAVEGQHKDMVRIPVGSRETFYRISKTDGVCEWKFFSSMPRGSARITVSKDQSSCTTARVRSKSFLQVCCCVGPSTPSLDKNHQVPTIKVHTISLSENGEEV
Experimental: as §1, §2

Alpha 2A = biological target: T4, Alpha 2A (Homo sapiens, UniProt P08913); assay: RSAT assay, alpha 2A receptor; conditions: ratio of maximal effect to that of standard agonist brimonidine
T4 construct: expressed in transfected cells; host or cells: NIH-3T3
T4 sequence (P08913 1-465): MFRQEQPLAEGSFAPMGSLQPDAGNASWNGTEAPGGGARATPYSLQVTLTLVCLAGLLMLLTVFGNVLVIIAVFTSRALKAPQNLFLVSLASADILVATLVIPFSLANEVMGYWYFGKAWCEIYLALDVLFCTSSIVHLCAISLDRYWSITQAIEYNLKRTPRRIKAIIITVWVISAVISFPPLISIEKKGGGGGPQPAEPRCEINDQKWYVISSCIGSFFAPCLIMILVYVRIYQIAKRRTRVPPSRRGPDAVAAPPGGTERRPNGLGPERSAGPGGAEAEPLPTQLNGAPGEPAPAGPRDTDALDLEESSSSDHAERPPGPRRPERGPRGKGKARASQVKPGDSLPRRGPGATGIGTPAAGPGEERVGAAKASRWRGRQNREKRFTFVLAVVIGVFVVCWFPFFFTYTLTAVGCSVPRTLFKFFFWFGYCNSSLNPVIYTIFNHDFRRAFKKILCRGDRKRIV
Experimental: as §1, §2

| Compound | EC50 (Alpha 2B) | Alpha 2B (IA) intrinsic activity (Alpha 2B) | EC50 (Alpha 2C) | Alpha 2C (IA) intrinsic activity (Alpha 2C; RSAT, ratio of maximal effect to that of standard agonist brimonidine) | EC50 (Alpha 1A) | Alpha 1A (IA) intrinsic activity (Alpha 1A; RSAT, ratio of maximal effect of drug to maximal effect of standard full agonist) | Alpha 2A (IA) intrinsic activity (Alpha 2A) |
| --- | --- | --- | --- | --- | --- | --- | --- |
| Cc1[nH]cnc1C(C)c1cccc2cccnc12 (stereo not drawn) [8-(1-(5-methyl-1H-imidazol-4-yl)ethyl)quinoline] | 30 nM | 0.70 | 3.11 µM | 0.32 |  |  |  |
| Cc1[nH]cnc1Cc1cccc2cccnc12 [8-((5-methyl-1H-imidazol-4-yl)methyl)quinoline] | 117 nM | 0.70 |  |  | 1730 nM | 0.75 |  |
| Cc1[nH]cnc1Cc1ccc2cccnc2c1C [8-methyl-7-((5-methyl-1H-imidazol-4-yl)methyl)quinoline] |  |  |  |  |  |  | 0.43 |
